PubChem BioAssay AID2060899 (Molecular Pharmacology Branch, DTP, NCI, 2025)

System: 565726-208-R1-J5-PDC complex spheroids, growth inhibition
Assay: Anticancer human tumor 565726-208-R1-J5-PDC patient-derived pancreatic adenocarcinoma cell line growth inhibition [RAS]
Conditions: for IC50: curve of first compound; for viability, T/C: stronger effect = lower value
Source text: RAS pathway inhibitors in Combinations in Complex Spheroids
A high-throughput screen of multi-cell type tumor spheroids was designed to identify active combinations of RAS pathway inhibitors and targeted small molecules. Complex spheroids include a stromal component modeled by human endothelial cells (HUVEC) and fibroblasts modeled by human mesenchymal stem cells (MSCs). The concentration ranges selected for each drug and investigational agent were based upon clinically achievable concentrations if the clinical Cmax of the agent was known.
Compounds. The drugs and investigational agents: abemaciclib (NSC768073), cobimetinib (NSC768068), divarasib (GDC6063, NSC841802), docetaxel (NSC628503), GDC-1971 (RLY-1971, NSC841576), gemcitabine (NSC613327), inavolisib (NSC800729), ipatasertib (NSC767898), KB-0742 (NSC834161), MRTX-1133 (NSC836407), osimertinib (NSC779217), RMC-4630 (NSC839698), RMC-6236 (NSC851965), RMC-6291 (NSC852671), Ro-3306 (NSC812927), sapanisertib (NSC764658), SN-38 (NSC673596), staurosporine (NSC755774), SY5609 (NSC837396), and tovorafenib (DAY101, NSC766906), were obtained from the National Cancer Institute (NCI) Developmental Therapeutics Program Chemical Repository. The FDA-approved anticancer drug set is available from the NCI Developmental Therapeutics Program. […] The stock solutions were prepared in dimethyl sulfoxide (DMSO, Sigma-Aldrich, St. Louis, MO, cat. D2650) at 800-fold the tested concentration and stored at -70 degrees C prior to their use. All drugs and investigational agents were tested over a range starting from a high concentration at or near the clinical Cmax and decreasing in half-log increments. If the clinical Cmax for an agent had not been determined, the highest concentration tested was 10 microM.
Cell Culture. All cells were maintained in an incubator at 37 degrees C and 5% CO2 with 95% humidity. The PDC lines were cultured according to standard operating procedures established by the NCI PDMR. All PDCs were thawed and cultured in Matrigel-coated flasks prepared with a working solution of 1X Ham's F-12 nutrient mix, without supplementation (Invitrogen, Waltham, MA, cat. 11765054), 100 U/mL penicillin-streptomycin (Invitrogen, cat. 15140122), and 2.5% Matrigel (Corning Inc., Corning, NY, cat. 354248) for the first three passages. The 362531-283-R-J2-PDC and 782815-120-R-J1-PDC lines were cultured in 6C/Colon 1B media, which includes advanced DMEM/F-12 (Thermo Fisher Scientific, cat. 12634028), 10 mM HEPES (Thermo Fisher Scientific, cat. 15630080), 1X GlutaMAX supplement (Thermo Fisher Scientific, cat. 35050061), 0.1 mg/mL primocin (InvivoGen, San Diego, CA, cat. ant-pm-2), 10% defined fetal bovine serum, heat inactivated (HyClone Laboratories Inc., Logan, UT, cat. SH30070.03HI), 50% L-WRN conditioned media (ATCC, cat. CRL-3276), 1.25 mM N-Acetyl-L-cysteine (Sigma-Aldrich, cat. A9165), 10 mM nicotinamide (Sigma-Aldrich, cat. N0636), 1X B-27 supplement (Thermo Fisher Scientific, cat. 17504044), 1X N-2 supplement (Thermo Fisher Scientific, cat. 17502048), 50 ng/mL human EGF (Thermo Fisher Scientific, cat. PHG0311), and 10 microM Y-27632 dihydrochloride (Tocris Bioscience, cat. 1254). The K12877-001-R-J1-PDC line was cultured in 6I media, which includes all 6C/Colon 1B media plus 10 ng/mL human FGF-10 (PeproTech, cat. 100-26), 1 ng/mL human FGF-2 (PeproTech, cat. 100-18B), 1 µM prostaglandin E2 (Tocris Bioscience, cat. 2296), […] hydrocortisone (Sigma-Aldrich, cat. H4001), and […] bovine insulin (Sigma-Aldrich, cat. I6634). The K86415-001-R-J1-PDC line was cultured in 6D media, which includes all 6C/Colon 1B media components minus the L-WRN conditioned media. The 485176-168-R4-J1-PDC was cultured in PANC media, which includes all 6C/Colon 1B media plus 100 ng/mL human FGF-10 (PeproTech, cat. 100-26), 500 nM SB-431542 (Selleckchem, cat. S1067), and 10 nM gastrin (Tocris Bioscience, cat. 3006). […]
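Further: spheroids exposed to compounds for seven days before readout.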
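Wherever viability, T/C is given: 100% = DMSO vehicle control viability.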

## CC1(C)CCC(Nc2ncc(C(F)(F)F)c(-c3c[nH]c4c(P(C)(C)=O)c(C#N)ccc34)n2)CN1 (centres undefined) + C#Cc1c(F)ccc2cc(O)cc(-c3ncc4c(N5CC6CCC(C5)N6)nc(OCC56CCCN5CC(F)C6)nc4c3F)c12
Second compound 0.0316 µM
  IC50: 6.41 nM
Second compound 0.1 µM
  IC50: 6.67 nM
Second compound 0.316 µM
  IC50: 6.82 nM
Second compound 1 µM
  IC50: 7.75 nM
Second compound 3.16 µM
  IC50: 11.6 nM
Second compound 10 µM
  IC50: 2.98 nM
Second compound 0.0316 µM, first compound 0.000949 µM
  viability, T/C: 87.7%
Second compound 0.0316 µM, first compound 0.003 µM
  viability, T/C: 75.5%
Second compound 0.0316 µM, first compound 0.00949 µM
  viability, T/C: 36.9%
Second compound 0.0316 µM, first compound 0.03 µM
  viability, T/C: 33.9%
Second compound 0.0316 µM, first compound 0.0949 µM
  viability, T/C: 35.6%
Second compound 0.0316 µM, first compound 0.3 µM
  viability, T/C: 36.8%
Second compound 0.1 µM, first compound 0.000949 µM
  viability, T/C: 77.7%
Second compound 0.1 µM, first compound 0.003 µM
  viability, T/C: 64%
Second compound 0.1 µM, first compound 0.00949 µM
  viability, T/C: 44.5%
Second compound 0.1 µM, first compound 0.03 µM
  viability, T/C: 35.6%
Second compound 0.1 µM, first compound 0.0949 µM
  viability, T/C: 39.9%
Second compound 0.1 µM, first compound 0.3 µM
  viability, T/C: 40.6%
Second compound 0.316 µM, first compound 0.000949 µM
  viability, T/C: 75%
Second compound 0.316 µM, first compound 0.003 µM
  viability, T/C: 68.5%
Second compound 0.316 µM, first compound 0.00949 µM
  viability, T/C: 42.5%
Second compound 0.316 µM, first compound 0.03 µM
  viability, T/C: 42.2%
Second compound 0.316 µM, first compound 0.0949 µM
  viability, T/C: 43.7%
Second compound 0.316 µM, first compound 0.3 µM
  viability, T/C: 37.6%
Second compound 1 µM, first compound 0.000949 µM
  viability, T/C: 65.7%
Second compound 1 µM, first compound 0.003 µM
  viability, T/C: 64.6%
Second compound 1 µM, first compound 0.00949 µM
  viability, T/C: 46.1%
Second compound 1 µM, first compound 0.03 µM
  viability, T/C: 44.3%
Second compound 1 µM, first compound 0.0949 µM
  viability, T/C: 54%
Second compound 1 µM, first compound 0.3 µM
  viability, T/C: 43%
Second compound 3.16 µM, first compound 0.000949 µM
  viability, T/C: 60%
Second compound 3.16 µM, first compound 0.003 µM
  viability, T/C: 59.3%
Second compound 3.16 µM, first compound 0.00949 µM
  viability, T/C: 46.5%
Second compound 3.16 µM, first compound 0.03 µM
  viability, T/C: 45.3%
Second compound 3.16 µM, first compound 0.0949 µM
  viability, T/C: 50.4%
Second compound 3.16 µM, first compound 0.3 µM
  viability, T/C: 45.7%
Second compound 10 µM, first compound 0.000949 µM
  viability, T/C: 62.6%
Second compound 10 µM, first compound 0.003 µM
  viability, T/C: 50.2%
Second compound 10 µM, first compound 0.00949 µM
  viability, T/C: 47.2%
Second compound 10 µM, first compound 0.03 µM
  viability, T/C: 47.4%
Second compound 10 µM, first compound 0.0949 µM
  viability, T/C: 52.6%
Second compound 10 µM, first compound 0.3 µM
  viability, T/C: 46.5%

## C=CC(=O)N1CCN(c2nc(OCC3CCCN3C)nc3c(F)c(-c4nc(N)cc(C)c4C(F)(F)F)c(Cl)cc23)C(C)C1 (centres undefined) + CCn1c(-c2cc(N3CCN(C)CC3)cnc2C(C)OC)c2c3cc(ccc31)-c1csc(n1)CC(NC(=O)C1CC1C)C(=O)N1CCCC(N1)C(=O)OCC(C)(C)C2
Second compound 0.000949 µM
  IC50: > 1000 nM
Second compound 0.003 µM
  IC50: 6.29 nM
Second compound 0.00949 µM
  IC50: < 3.16 nM
Second compound 0.03 µM
  IC50: < 3.16 nM
Second compound 0.0949 µM
  IC50: < 3.16 nM
Second compound 0.3 µM
  IC50: < 3.16 nM
Second compound 0.000949 µM, first compound 0.00316 µM
  viability, T/C: 63.5%
Second compound 0.000949 µM, first compound 0.01 µM
  viability, T/C: 59.2%
Second compound 0.000949 µM, first compound 0.0316 µM
  viability, T/C: 61.2%
Second compound 0.000949 µM, first compound 0.1 µM
  viability, T/C: 63.1%
Second compound 0.000949 µM, first compound 0.316 µM
  viability, T/C: 62.5%
Second compound 0.000949 µM, first compound 1 µM
  viability, T/C: 57.9%
Second compound 0.003 µM, first compound 0.00316 µM
  viability, T/C: 50.9%
Second compound 0.003 µM, first compound 0.01 µM
  viability, T/C: 43.8%
Second compound 0.003 µM, first compound 0.0316 µM
  viability, T/C: 53.3%
Second compound 0.003 µM, first compound 0.1 µM
  viability, T/C: 51.4%
Second compound 0.003 µM, first compound 0.316 µM
  viability, T/C: 50.5%
Second compound 0.003 µM, first compound 1 µM
  viability, T/C: 43.5%
Second compound 0.00949 µM, first compound 0.00316 µM
  viability, T/C: 40.5%
Second compound 0.00949 µM, first compound 0.01 µM
  viability, T/C: 39.7%
Second compound 0.00949 µM, first compound 0.0316 µM
  viability, T/C: 34%
Second compound 0.00949 µM, first compound 0.1 µM
  viability, T/C: 41.8%
Second compound 0.00949 µM, first compound 0.316 µM
  viability, T/C: 39.9%
Second compound 0.00949 µM, first compound 1 µM
  viability, T/C: 34.1%
Second compound 0.03 µM, first compound 0.00316 µM
  viability, T/C: 29%
Second compound 0.03 µM, first compound 0.01 µM
  viability, T/C: 32.3%
Second compound 0.03 µM, first compound 0.0316 µM
  viability, T/C: 29.9%
Second compound 0.03 µM, first compound 0.1 µM
  viability, T/C: 31.7%
Second compound 0.03 µM, first compound 0.316 µM
  viability, T/C: 34.5%
Second compound 0.03 µM, first compound 1 µM
  viability, T/C: 29.4%
Second compound 0.0949 µM, first compound 0.00316 µM
  viability, T/C: 23.1%
Second compound 0.0949 µM, first compound 0.01 µM
  viability, T/C: 27.1%
Second compound 0.0949 µM, first compound 0.0316 µM
  viability, T/C: 25.5%
Second compound 0.0949 µM, first compound 0.1 µM
  viability, T/C: 27.5%
Second compound 0.0949 µM, first compound 0.316 µM
  viability, T/C: 29.2%
Second compound 0.0949 µM, first compound 1 µM
  viability, T/C: 24.3%
Second compound 0.3 µM, first compound 0.00316 µM
  viability, T/C: 22.6%
Second compound 0.3 µM, first compound 0.01 µM
  viability, T/C: 22.1%
Second compound 0.3 µM, first compound 0.0316 µM
  viability, T/C: 23.2%
Second compound 0.3 µM, first compound 0.1 µM
  viability, T/C: 22.1%
Second compound 0.3 µM, first compound 0.316 µM
  viability, T/C: 25.6%
Second compound 0.3 µM, first compound 1 µM
  viability, T/C: 22.6%
